# Laboratory results taken from US20110136751A1, “Use of Polyphenols in the Treatment of Cancer” (Green Molecular, priority 2009, published 2011).
# Key:
# human tumor cells = assay: Autophagy activation (LC3-II, P62/SQSTM1, GFP-LC3); assay type: cell-based; settings: at bioavailable concentrations
# Text: In addition, there are different molecular events associating pterostilbene with autophagy activation: a) an increase of LC3-II form, indicating the processing of LC3 protein to its lapidated form; and b) an increase in P62/SQSTM1 bands and GFP-LC3 punctuation, indicating P62 accumulation and translocation of LC3 to autophagic membranes, respectively. An acute loss of tubulin organization, indicating cell cycle arrest, was also detected by immunochemistry.
# caspase 3 = assay: Caspase-3 activity (Apo-ONE Homogeneous Caspase-3 Assay); assay type: cell-based, human; settings: within a 24 h-period
# Procedure: Aspase-3 activity was measured with Apo-ONE® Homogeneous Caspase-3 Assay (Promega). The assay was configured for 96 well plates (5000 cells/well). Cells were plated for 24 h. Capase-3/7 activities were evaluated 24 h after polyphenols addition. Fluorescence (a.u.) was expressed as relative index where control is 1. Results are expressed as relative proliferation index±SD (n=3).
# The effects of pterostilbene and resveratrol on cell cycle were tested. […] Both DNA synthesis and tubulin polymerization were seriously affected.
# [1] = cited from earlier work
Structure (SMILES),autophagy (human tumor cells),caspase 3 activation (caspase 3),"reduction in glomerular flow rate ([1]; 1400 mg QUER/m^2, the two affected patients, first 24 hours) [%]","tolerability ([1]; daily i.v. bolus doses of 100 mg QUER/m2, human patients)",renal toxicity ([1]; i.v. bolus of 1400 mg QUER/m^2 once weekly for three weeks)
"COc1cc(/C=C/c2ccc(O)cc2)cc(OC)c1 [t-PTER, trans-3,5-dimethoxy-4′-hydroxystilbene]",activates autophagy,no caspase 3 activation was detected,,,
"O=c1c(O)c(-c2ccc(O)c(O)c2)oc2cc(O)cc(O)c12 [QUER, quercetin]",,,~20,well tolerated,two of ten patients
"Oc1ccc(/C=C/c2cc(O)cc(O)c2)cc1 [RI, trans-3,5,4′-trihydroxystilbene, reference compound]",,no caspase 3 activation was detected,,,
